# Test results reported in paper PMC3436176 (The Journal of Biological Chemistry, 2012).
# Experiments:
# [1] = molecular target: T1, GPVI-Fc2 (GPVI dimer) (Homo sapiens, UniProt Q9HCN6); experiment: ELISA: GPVI dimer binding to immobilized collagenous substrates; conditions: for Kd (monomer)/Kd (dimer): binding to collagenous substrates
# T1 sequence (Q9HCN6 21-214 limits assumed): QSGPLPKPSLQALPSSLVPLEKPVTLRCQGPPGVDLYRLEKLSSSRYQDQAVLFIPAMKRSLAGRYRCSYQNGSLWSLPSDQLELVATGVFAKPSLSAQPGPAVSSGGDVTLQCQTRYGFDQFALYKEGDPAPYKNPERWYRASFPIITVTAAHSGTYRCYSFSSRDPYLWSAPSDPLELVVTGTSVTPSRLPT
# [2] = test system: GPVI on platelets; experiment: Flow cytometric GPVI quantitation; assay type: cell-based, human; conditions: dimers versus resting platelets
# [3] = test system: GPVI dimer on washed platelets; experiment: Time and agonist concentration dependence of dimer increase; assay type: cell-based, human
# [4] = CRP 5 μg/ml or thrombin 0.2 unit/ml, washed platelets 2.5 × 10^8 cells/ml
Substance,Kd (monomer)/Kd (dimer) [1],"Hill coefficient for dimer binding ([1]; mean ± S.E., n = 4-12 as printed)",% increase after activation [2],"time after which dimer levels started to increase [3, 4]","time at which dimer level reaches a maximum [3, 4]","agonist concentration at which dimer level reaches a maximum ([3]; washed platelets 1 × 10^8 cells/ml, FITC-m-Fab-F 100 μg/ml)"
Collagen type I: Pepsin-treated bovine type I collagen from Koken,194.3,1.14 ± 0.07,,,,
GPC–(GPP)5–GAOGARGGAGPOGPEGGKGAAGPOGPO(GPP)5–GPC–NH2 [III-30A],887.0,,,,,
"Thrombin: bovine thrombin (Sigma), platelet agonist",,,55%,30 s,4 to 5 min,> 0.5 unit/ml
